6 compounds from patent US7129271B2, “Compounds for pest control and methods for their use” (The United States of America as represented by the …, priority 2000, dated 2006) can be followed below.

Data set [1] relates to I. scapularis nymphs, X. cheopis adults, and Ae. aegypti adults. Nature of the data set: Initial screening against all three arthropods (Example 9). In kind it is in vivo. The conditions noted are these: 24 hours exposure; ticks, fleas, mosquitoes. The procedure:
Valencene-13-aldehyde was prepared by oxidation of valencene with SeO2. […] Commercial samples of nootkatone for comparison were obtained from Bedoukian Research, Inc., Danbury, Conn. (semi-synthetic crystalline) and Frutarom, Inc. N.J. (from grapefruit oil). […] The compounds identified by an asterisk—nos.

The next data set deals with Culex p. pipiens. In words: Mosquito susceptibility, serial dilutions (Example 8). The conditions noted are these: in vivo.
In data set [2] the test system is Aedes aegypti adults. In words: Residual activity, treated bottles aged before loading (Example 9). In kind it is in vivo. How it is done: (§1) Mosquit Bioassay. Adult mosquitoes were tested using the bottle bioassay method of Brogden, W. G., and McAllister, J. C., J. Am. Mosq. Control Assoc. 14:159–64 (1998), with minor modifications. Natural product extracts were two-fold serially diluted for a total of 8 concentrations ranging from 0.002% to 0.25% in 1.5 ml of acetone. Individual dilutions were added to 250 ml Wheaton glass bottles and capped. Bottles were manipulated to evenly coat all inner surfaces. The caps were removed and bottles were allowed to air-dry overnight. Once bottles were completely dry, 10–50 adult mosquitoes were aspirated into the bottles. Mosquitoes were held in the bottles for 24 h at 23° C. and 85% RH. Morbidity and mortality were recorded at 15, 30, 45, and 60 min and 24 hour intervals. One bottle for each replicate was treated with acetone only and served as a control. The dose-mortality data was evaluated with probit analysis, using the LdP Line software, to determine LC50 and LC90 values.

For the next data set, the system named is I. scapularis nymphs. Nature of the data set: Tick bioassay, modified disposable pipette method, treated vials (Example 9). In kind it is in vivo, Ixodes scapularis. How it is done: Tick Colonies. […] There was no known pesticide used at this location. Ticks were maintained at 21° C., 90% RH, and received a 16:8 h (light:dark) cycle as described in […]. Med. […] Tick and Flea Bioassays. […] A control treated with acetone only was run with each series. Tick and flea susceptibility was evaluated using a modified disposable pipette method. See, Barnard, D. R., et al., J. Econ. […] Three to 4 holes were made in the plastic cap to allow for air exchange. Nymphal ticks and adult fleas were then placed directly into the vials using forceps. Vials containing ticks or fleas were placed in desiccators for 24 h at 21° C. and 90% RH. […] For each time point, if ticks were incapable of movement, maintaining normal posture, leg coordination, ability to right themselves, or any signs of life, they were considered moribund or dead.

The subject of data set [3] is ticks, fleas, and mosquitoes. In words: Residual activity, overall statements for ticks, fleas and mosquitoes (Example 9). Conditions: 1 to 4 weeks after treatment.
For data set [4], the system named is Xenopsylla cheopis adults. In words: Residual activity, treated vials aged before loading (Example 9). In kind it is in vivo. How it is done:
(§2) Tick and Flea Bioassays. Concentrations of the compounds were prepared by 2-fold serial dilutions of a 0.5% (wt:vol) solution of the extracts in acetone. The approximate toxicity of individual compounds was determined with a total of 8 doses ranging from 0.002% to 0.25%. […] A control treated with acetone only was run with each series. Tick and flea susceptibility was evaluated using a modified disposable pipette method. See, Barnard, D. R., et al., J. Econ. Entomol. 74:466–69 (1981).
(§3) Groups of 10 nymphal I. scapularis and X. cheopis fleas were used in all tests, resulting in a total of 5,240 nymphs and 4,860 fleas exposed to the compounds. The inner surface of 2-dram friction cap vials were treated with the compound/acetone solution, or acetone only as a control, and left to air-dry overnight. Three to 4 holes were made in the plastic cap to allow for air exchange. Nymphal ticks and adult fleas were then placed directly into the vials using forceps. Vials containing ticks or fleas were placed in desiccators for 24 h at 21° C. and 90% RH. Morbidity and mortality was recorded at 1, 2, 4, 8, and 24 h after initial exposure.

The test system of another data set is Ixodes scapularis nymphs. Described as above. In kind it is in vivo. How it is done: as §2, §3
In a further data set the test system is Ae. aegypti adults. In words: Mosquito bottle bioassay (Example 9). Conditions: 24 h exposure, 95% CI in parentheses. In kind it is in vivo. The procedure:
Mosquito Colonies. Aedes aegypti adult mosquitoes were obtained from an existing colony at the Centers for Disease Control and Prevention (CDC), Division of Vector-Borne Infectious Diseases (DVBID), Fort Collins, Colo. This colony has been maintained for over fifteen years with no known history of exposure to pesticides. Mosquitoes were reared at 28° C., 85% RH, and a 14:10 h (light:dark) cycle. Larvae were grown in de-ionized water and fed ground liver powder solution ad libitum. Fourth instars were removed and placed in emergence cages, and adults were fed a 2% sucrose solution until assayed. Adults were exposed to test products at 4–7 d after emergence.
as §1

In another data set the test system is X. cheopis adults. In words: Flea bioassay, treated vials (Example 9). In kind it is in vivo. The conditions noted are these: 24 h exposure, 95% CI in parentheses. How it is done:
Flea Colonies. Adult X. cheopis fleas (1–3 wk old) were obtained from a colony founded more than eight years ago using adults received from Tom Schwan, Rocky Mountain Laboratories, Hamilton, Mont. The area from which these original adult fleas were obtained, and the resulting colony, have no known histories of pesticide exposure.
Tick and Flea Bioassays. Concentrations of the compounds were prepared by 2-fold serial dilutions of a 0.5% (wt:vol) solution of the extracts in acetone. […] A control treated with acetone only was run with each series. Tick and flea susceptibility was evaluated using a modified disposable pipette method. See, Barnard, D. R., et al., J. Econ. Entomol.
The inner surface of 2-dram friction cap vials were treated with the compound/acetone solution, or acetone only as a control, and left to air-dry overnight. Three to 4 holes were made in the plastic cap to allow for air exchange. Nymphal ticks and adult fleas were then placed directly into the vials using forceps. Vials containing ticks or fleas were placed in desiccators for 24 h at 21° C. and 90% RH. Morbidity and mortality was recorded at 1, 2, 4, 8, and 24 h after initial exposure.

Data set [5] concerns nymphal Ixodes scapularis. Nature of the data set: Treated-vial biocidal screening, 2% acetone solutions (Example 2). In kind it is in vivo. How it is done: (§4) Samples of the compounds listed below Were obtained from Dr. Karchesy, a co-inventor, and screened for biocidal activities against nymphal Ixodes scapularis. In this example, 2% acetone solutions (wt./vol.) of the compounds were applied to inner surfaces of 2-dram friction cap vials. Vials and caps were treated then allowed to dry for a minimum of 4 hours before placing 10 nymphs in each container. These same vials were used to challenge additional nymphs and adult I. scapularis ticks and adult Xenopsylla cheopis fleas through five weeks to observe any possible residual activity.
(§5) Numbers in parentheses refer to length of treatment in terms of hours (h) or weeks (wk). Data is presented in terms of number killed/number tested. For test periods longer than 24 hours, the treated vials were allowed to sit for the stated period after drying (72 h, 4 wk, or 5 wk) and each group of arthropods was added to the vials for the final 24 h of the test period.

Data set [6] has as its system adult I. scapularis ticks. Nature of the data set: Treated-vial biocidal screening, residual challenge (Example 2). In kind it is in vivo, Ixodes scapularis. Conditions: treated vials sat 4 wk; arthropods added for final 24 h. The procedure: as §4, §5
Data set [7] relates to Aedes aegypti adults. In words: Treated-vial bioassay on mosquito (Example 3). In kind it is in vivo. Conditions: 24 hours challenge. The procedure: as §4
Using a bioassay method similar to that presented in Example #2, the susceptibility of Aedes aegypti adults to the five compounds presented in Example #2 at 24 hours challenge was determined to be 100% mortality except for nootkatin (20% mortality).

Data set [8] concerns adult Xenopsylla cheopis fleas. Nature of the data set: Treated-vial biocidal screening, residual challenge (Example 2). In kind it is in vivo. Conditions: treated vials sat 5 wk; arthropods added for final 24 h. How it is done:
as §4, §5

Data set [9] concerns ticks, fleas, and mosquitos. In words: Bioassay of Example 2 on ticks, fleas and mosquitos (Examples 4 and 6). In kind it is in vivo. The procedure:
as §4
Nootkatol was tested using the bioassay presented in Example 2.
Two nootkatone samples were compared to nootkatone isolated from Alaska yellow cedar using the method presented in Example 1. The first sample was a natural extract of nootkatone taken from grapefruit oil purchased commercially. The second sample was a synthetically produced nootkatone purchased commercially.
Both samples were compared to the nootkatone originating from Alaska yellow cedar in terms of their biocidal activities. Using a bioassay method similar to that presented in Example 2, no differences were discernible among the nootkatone samples in terms of their biocidal effect on ticks, fleas and mosquitos.

The mark [10] stands for this setting: residual activity at 1 week after treatment.
Where [11] appears, read: residual activity at 2 weeks after treatment.
The mark [12] stands for this setting: residual activity at 4 weeks after treatment.
Setting [13] is: 24 h exposure, 95% CI in parentheses.

The structures appear in SMILES notation. ≈ marks a conversion by molar mass, not a printed value. Like-named read-outs stand apart in the source and are kept apart here.

For the compound `CC1=CCC2C(C1)C2(C)C` (centres unmarked) [Compound 1, 3-Carene], in [1], the “pesticidal activity in initial screening” value is recorded as “no pesticidal activity”.
For the compound `CC1=CCC(O)(C(C)C)CC1` (centres unmarked) [Compound 2, Terpinen-4-ol], the “pesticidal activity in initial screening” value in [1] is “no pesticidal activity”.
The same measure, in the same setting: next, `COc1cc(C(C)C)ccc1C` [Compound 3, Methyl carvacrol]: “no pesticidal activity”.
Regarding `C=C(CO)C1CCC2=CCC[C@@H](C)[C@]2(C)C1` (some centres unmarked) [Compound 10, 13-hydroxy-valencene], the “C. pipiens LD50” value with Culex p. pipiens was < 4.5×10^−3. Moreover, the LC50 with Aedes aegypti adults [2] (setting [10]) was 0.024 (0.02–0.028) percent concentration, wt:vol; in the data set with Aedes aegypti adults [2] (setting [11]), 0.014 (0.012–0.016) percent concentration, wt:vol; in the data set on Aedes aegypti adults [2] (setting [12]), 0.013 (0.0089–0.017) percent concentration, wt:vol; in the data set with I. scapularis nymphs (Ixodes scapularis, 24 h) it was 51 µg/mL (≈ 231 µM); in data set [4] (setting [10]) it was 0.03 (0.022–0.041) percent concentration, wt:vol; in data set [4] (setting [11]), 0.039 (0.029–0.053) percent concentration, wt:vol. For the same compound, the LC50 was 0.0071 (0.0055–0.0091) percent concentration, wt:vol in the data set on Ixodes scapularis nymphs (setting [10]); 0.0083 (0.0057–0.011) percent concentration, wt:vol in the data set on Ixodes scapularis nymphs (setting [11]); 0.031 percent concentration, wt:vol with Ixodes scapularis nymphs (setting [12]); 34 µg/mL (≈ 154 µM) in the data set with Ae. aegypti adults (Aedes aegypti, 24 h, read-out: LC50); 83 µg/mL (≈ 377 µM) with X. cheopis adults (Xenopsylla cheopis, 24 h, read-out: LC50). Also, the LC90 with Aedes aegypti adults [2] (setting [10]) was 0.058 (0.046–0.081) percent concentration, wt:vol; with Aedes aegypti adults [2] (setting [11]), 0.021 (0.019–0.027) percent concentration, wt:vol; in the data set on Aedes aegypti adults [2] (setting [12]), 0.04 (0.029–0.074) percent concentration, wt:vol; in the data set with I. scapularis nymphs (Ixodes scapularis, 24 h, 24 h exposure, 95% CI in parentheses, read-out: LC90) it was 160 µg/mL (≈ 726 µM); in data set [4] (setting [10]) it was 0.113 (0.074–0.226) percent concentration, wt:vol; in data set [4] (setting [11]), 0.131 (0.087–0.268) percent concentration, wt:vol. Also, the LC90 with Ixodes scapularis nymphs (setting [10]) is 0.019 (0.014–0.031) percent concentration, wt:vol; with Ixodes scapularis nymphs (setting [11]), 0.044 (0.029–0.081) percent concentration, wt:vol; with Ixodes scapularis nymphs (setting [12]), 0.303 percent concentration, wt:vol; in the data set with X. cheopis adults (Xenopsylla cheopis, 24 h, read-out: LC90), 210 µg/mL (≈ 953 µM). In addition, the “residual activity (in words)” value in data set [3] is given as “considerable biological activity”. In the data set on Ae. aegypti adults (Aedes aegypti, 24 h, read-out: LC90 (the source's name)), the EC90 was found to be 140 µg/mL (≈ 635 µM).
By mortality is commonly meant the share of the test organisms that died. Take `CC(C)=CCc1ccc(O)c(=O)cc1C(C)C` [Compound 11, Nootkatin]: in [5] (2% acetone solution (wt./vol.) dried in vials, 24 h), the “I. scapularis nymphs (24 h), number killed/number tested” value is reported as 1/10. Further, the “I. scapularis nymphs (72 h), number killed/number tested” value in data set [5] (treated vials sat 72 h, arthropods added for final 24 h) is on record as 0/5. Further, the “I. scapularis adults (4 wk), number killed/number tested” value in data set [6] is reported as 0/5. In addition, in the data set with Aedes aegypti adults [7], the mortality turned out to be 20%. Besides, in the data set on Ae. aegypti adults, the LC50 is on record as 0.852 percent concentration, wt:vol and the LC90 was 7.869 percent concentration, wt:vol. Moreover, in [8], the “X. cheopis adults (5 wk), number killed/number tested” value was 0/5.
As for `C=C(C)[C@@H]1CCC2=C[C@@H](O)C[C@@H](C)[C@]2(C)C1` [Compound 12, Nootkatol], in [9], the “biocidal activity compared with nootkatene” value was “essentially equivalent to the activity of nootkatene”. For the same compound, the LC50 with I. scapularis nymphs (setting [13]) was 0.023 (0.017–0.03) percent concentration, wt:vol; in the data set on I. scapularis nymphs (24 h exposure, 95% CI in parentheses, listed as compound 12) it was 0.023 percent concentration, wt:vol; in the data set on Ae. aegypti adults it was 0.004 (0.0032–0.0048) percent concentration, wt:vol; with Ae. aegypti adults (listed as compound 12), 0.004 percent concentration, wt:vol; with X. cheopis adults, 0.024 (0.018–0.034) percent concentration, wt:vol; in the data set on X. cheopis adults (listed as compound 12), 0.024 percent concentration, wt:vol. The LC90 with I. scapularis nymphs (setting [13]) is reported as 0.059 (0.042–0.116) percent concentration, wt:vol; in the data set with Ae. aegypti adults, 0.01 (0.008–0.014) percent concentration, wt:vol; with X. cheopis adults, 0.1 (0.065–0.196) percent concentration, wt:vol.
